One data set addresses T1, human MCP-1 receptor (Homo sapiens, UniProt P41597).
T1 construct: expressed in transfected cells; host or cells: CHO cells, transformant CHO(MCR); FERM BP-5446; IFO 50461
As to the kind of experiment: Determination of inhibitory activity on MCP-1 receptor (125I-MCP-1 binding to CHO cells expressing human MCP-1 receptor). To be noted: Test Compound 1 μM, 125I-human recombinant MCP-1 100 pM, room temperature 40 minutes. The protocol:
According to a method described in Working Example 1 of JP-A-238688/1997, human MCP-1 receptor gene was prepared. Said gene was inserted to plasmid pMCR, which was introduced into CHO cell. The resultant transformant [CHO(MCR); FERM BP-5446; IFO 50461] was used for the following experiment.
On 96 well culture plate (Packard Instrument Company), 7×10^4 cell/well of CHO cells expressing human MCP-1 receptor were inoculated, and the cells were cultivated at 37° C., overnight. The medium was removed by means of suction. To the residue were added a buffer solution (D-MEM containing 0.5% BSA and 20 mM HEPES; pH7.4), Test Compound (1 μM) and ^125I-human recombinant MCP-1 (Amersham; final concentration: 100 pM), and the mixture was allowed to react at room temperature for 40 minutes. The buffer solution was removed by means of suction and washed twice with PBS. To the residue was added MICROSCINT-20 (Packard Instrument Company), radioactivity of ^125I (cpm) was determined with Topcount (Packard).
The count number (cpm) (non-specific binding) of ^125I which binds to CHO cells (mock) having a vector was taken from the count number (cpm) of ^125I which binds to CHO cells expressing human MCP-1 receptor to obtain the amended count number, which was converted into 100%, and inhibition rate of Test Compound (whose number is referred to in the following Examples) against MCP-1 binding to its receptor was calculated.

Counter-ions that a name gives are not always drawn.

Broadly, the melting point is the temperature, or range, at which the solid turns liquid.

T1 sequence (P41597 whole entry): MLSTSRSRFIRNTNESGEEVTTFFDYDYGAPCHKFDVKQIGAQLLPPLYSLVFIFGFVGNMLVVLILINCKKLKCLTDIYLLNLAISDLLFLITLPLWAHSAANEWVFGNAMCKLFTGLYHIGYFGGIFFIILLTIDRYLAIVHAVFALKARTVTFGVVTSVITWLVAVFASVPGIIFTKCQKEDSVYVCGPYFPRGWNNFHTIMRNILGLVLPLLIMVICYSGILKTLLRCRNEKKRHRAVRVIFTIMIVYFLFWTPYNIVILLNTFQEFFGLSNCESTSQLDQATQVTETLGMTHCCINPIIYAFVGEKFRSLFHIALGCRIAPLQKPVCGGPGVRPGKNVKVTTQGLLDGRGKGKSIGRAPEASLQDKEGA

On to `CCc1ccc(-c2ccc3c(c2)C=C(C(=O)Nc2ccc(CP4(=O)CCCCC4)cc2)CCO3)cc1` [Compound 178, N-(4—(pentamethylene)-phosphorylmethylphenyl)-7—(4-ethylphenyl)-2,3-dihydro-1-benzoxepine-4-carboxamide], for which, at human MCP-1 receptor, the “Inhibition Rate (%) against MCP-1 binding to its receptor” value (“Inhibition Rate (%)” for short) was 64%.
The same measure, in the same setting: under `Cc1ccc(-c2cccc(/C=C/C(=O)Nc3ccc(C[N+]4(C)CCCCC4)cc3)c2)cc1` [Compound 72, (E)-1-methyl-1-[4—(3—(4-methylphenyl)cinnamamido)benzyl]-piperidinium iodide] stands 77%; under `Cc1ccc(-c2ccc3c(c2)C=C(C(=O)Nc2ccc(C[N+]4(C)CCCCC4)cc2)CCS3)cc1` [Compound 94, 1—(N-(7—(4-methylphenyl)-2,3-dihydro-1-benzo-thiepine-4-carbonyl)-4-aminobenzyl)-1-methyl-piperidinium iodide], 92%; under `Cc1ccc(-c2ccc3c(c2)C=C(C(=O)Nc2ccc(C[N+]4(C)CCCCC4)cc2)CCO3)cc1` [Compound 97, 1—(N-(7—(4-methylphenyl)-2,3-dihydro-1-benzoxepin-4-carbonyl)-4-aminobenzyl)-1-methylpiperidinium chloride], 96%.
For the molecule `CN(Cc1ccc(NC(=O)C2=Cc3cc(-c4ccc(N5CCCCC5)cc4)ccc3OCC2)cc1)C1CCOCC1` [Compound 151], the “Inhibition Rate (%)” value at human MCP-1 receptor was found to be 80%.
In the case of `Cc1ccc(-c2ccc3c(c2)C=C(C(=O)Nc2ccc(C[N+]4(C)CCCCC4)cc2)CC3)cc1` [Compound 16, 1-methyl-1-[4-[7—(4-methylphenyl)-3,4-dihydronaphthalene-2-carboxamido]benzyl]piperidinium iodide], the “Inhibition Rate (%)” value at human MCP-1 receptor was determined as 89%.
`Cc1ccc(-c2ccc3c(c2)C=C(C(=O)Nc2ccc(CN(C)C4CCOCC4)cc2)CCO3)s1` [Compound 290, N-[4-[N-methyl-N-(tetrahydropyran-4-yl)amino-methyl]phenyl]-7-(5-methyl-2-thienyl)-2,3-dihydro-1-benzoxepine-4-carboxamide] had a melting point of 129 to 130 °C.
As for `CN1CCN(c2ccc(-c3ccc4c(c3)C=C(C(=O)Nc3ccc(CN(C)C5CCOCC5)cc3)CCO4)cc2)CC1` [Compound 124, 7—(4—(4-methylpiperazin-1-yl)phenyl)-N-(4—((N-tetrahydropyran-4-yl-N-methylamino)methyl)phenyl)-2,3-dihydro-1-benzoxepine-4-carboxamide], the melting point fell in the range of 220 to 221 °C.
On the same count and under the same terms, the figure for `Cc1ccc(-c2ccc3c(c2)C=C(C(=O)Nc2ccc(C[N+]4(C)CCCCC4)cc2)CCO3)cc1` (as salt: iodide) [Compound 96, 1—(N-(7—(4-methylphenyl)-2,3-dihydro-1-benzoxepin-4-carbonyl)-4-aminobenzyl)-1-methylpiperidinium iodide] is 227 to 228 °C (dec.); for `Cc1ccc(-c2cccc(/C=C/C(=O)Nc3ccc(-c4cccnc4)cc3)c2)cc1` [Compound 192, (E)-N-[4—(3-pyridyl)phenyl]-3—(4-methylphenyl)cinnamamide] it is 213 to 214 °C; for `Cc1ccc(-c2ccc3c(c2)C=C(C(=O)Nc2ccc(CS(=O)(=O)C4CCCCC4)cc2)CCO3)cc1` [Compound 107, N-(4—(cyclohexylsulfonylmethyl)phenyl)-7—(4-methylphenyl)-2,3-dihydro-1-benzoxepine-4-carboxamide] it is 250 to 251 °C.
On the same count and under the same terms, the figure for `CN(Cc1ccc(NC(=O)C2=Cc3cc(-c4ccsc4)ccc3OCC2)cc1)C1CCOCC1` [Compound 291, N-[4-[N-methyl-N-(tetrahydropyran-4-yl)aminomethyl]phenyl]-7-(3-thienyl)-2,3-dihydro-1-benzoxepine-4-carboxamide] is 194 to 195 °C; for `CN(Cc1ccc(NC(=O)C2=Cc3cc(-c4ccc(C(C)(C)C)cc4)ccc3OCC2)cc1)C1CCOCC1` [Compound 179, N-[4-[N-methyl-N-(tetrahydropyran-4-yl)aminomethyl]phenyl]-7—(4-tert-butylphenyl)-2,3-dihydro-1-benzoxepine-4-carboxamide] it is 193 to 194 °C; for `CN(C)c1ccc(-c2ccc3c(c2)C=C(C(=O)Nc2ccc(CN(C)C4CCOCC4)cc2)CCO3)cc1` [Compound 149, 7—(4-dimethylaminophenyl)-N-(4—((N-tetrahydropyran-4-yl-N-methylamino)methyl)phenyl)-2,3-dihydro-1-benzoxepine-4-carboxamide] it is 208 to 209 °C (dec.).
On to `CC(C)c1ccc(-c2ccc(/C=C/C(=O)Nc3ccc(CN(C)C4CCOCC4)cc3)s2)cc1` [Compound 274, (E)-3-[5-(4-isopropylphenyl)thiophen-2-yl]-N-[4-[N-methyl-N-(tetrahydropyran-4-yl)aminomethyl]-phenyl]acrylamide], for which the melting point was in the range of 187 to 189 °C.
On the same count and under the same terms, the figure for `O=C(Nc1ccc(CN2CCCCC2)cc1)C1=Cc2cc(-c3ccccc3)ccc2CC1` [Compound 4, 7-phenyl-N-[4—(piperidinomethyl)phenyl]-3,4-dihydronaphthalene-2-carboxamide] is 163 to 164 °C; for `Cc1ccc(-c2csc(/C=C/C(=O)Nc3ccc(CN(C)C4CCOCC4)cc3)c2)cc1` [Compound 212, (E)-N-[4-[N-methyl-N-(tetrahydropyran-4-yl)aminomethyl]-phenyl)-3-[4—(4-methylphenyl)thiophen-2-yl]acrylamide] it is 188 to 190 °C.
Still for that read-out and setting: the figure for `CN1CCC(C(=O)Nc2ccc(CN(C)C3CCOCC3)cc2)=Cc2cc(-c3ccc(OC(F)(F)F)cc3)ccc21` [Compound 315, 1-methyl-N-[4-[[N-methyl-N-(tetrahydro-2H-pyran-4-yl)amino]methyl]phenyl]-7-(4-trifluoromethoxyphenyl)-2,3-dihydro-1-benzazepine-4-carboxamide] is 182 to 183 °C; for `CCCP(=O)(CCC)Cc1ccc(NC(=O)C2=Cc3cc(-c4ccc(C)cc4)ccc3OCC2)cc1` [Compound 168, N-(4-dipropylphosphorylmethylphenyl)-7—(4-methylphenyl)-2,3-dihydro-1-benzoxepine-4-carboxamide] it is 219 to 220 °C.
The same measure, in the same setting: under `Cc1ccc(-c2ccc3nc(C)c(C(=O)Nc4ccc(CN(C)C5CCOCC5)cc4)cc3c2)cc1` [Compound 216, N-[4-[N-methyl-N-(tetrahydropyran-4-yl)aminomethyl]phenyl]-6—(4-methylphenyl)-2-methylquinoline-3-carboxamide] stands 157 to 160 °C.
For `Cc1ccc(-c2ccc3c(c2)C=C(C(=O)Nc2ccc(C[N+](C)(C)C4CCOCC4)cc2)CCC3)cc1` [Compound 220, N,N-dimethyl-N-(4—((2—(4-methylphenyl)-6,7-dihydro-5H-benzocyclohepten-8-yl)carbonyl)aminobenzyl)-N-(4-tetrahydropyranyl)ammonium iodide], the “Inhibition Rate (%)” value on human MCP-1 receptor is recorded as 98%.
Consider `CN(Cc1ccc(NC(=O)C2=Cc3cc(-c4ccc(Cl)cc4)ccc3OCC2)cc1)C1CCOCC1` [Compound 181, N-[4-[N-methyl-N-(tetrahydropyran-4-yl)aminomethyl]-phenyl]-7—(4-chlorophenyl)-2,3-dihydro-1-benzoxepine-4-carboxamide], for which the melting point lay in the range of 191 to 192 °C.
`Cc1ccc(-c2ccc3c(c2)C=C(C(=O)Nc2ccc(CN(C)C4CCOCC4)cc2)CCN3S(=O)(=O)C(F)(F)F)cc1` [Compound 321, 7-(4-methylphenyl)-N-[4-[[N-methyl-N-(tetrahydro-2H-pyran-4-yl)amino]methyl]-phenyl]-1-[(trifluoromethyl)sulfonyl]-2,3-dihydro-1-benzazepine-4-carboxamide]: the melting point fell in the range of 185 to 187 °C.
Regarding `Cc1ccc(-c2ccc3c(c2)C=C(C(=O)Nc2ccc(CNc4cccnc4)cc2)CC3)cc1` [Compound 47, 7—(4-methylphenyl)-N-[4-[N-(3-pyridyl)aminomethyl]phenyl]-3,4-dihydronaphthalene-2-carboxamide], the melting point fell in the range of 212 to 214 °C.
The same measure, in the same setting: the figure for `CCOc1ccc(-c2ccc3c(c2)C=C(C(=O)Nc2ccc(C[N+](C)(C)C4CCOCC4)cc2)CCO3)cc1` (as salt: chloride) [Compound 250, N-(4-(((7-(4-ethoxyphenyl)-2,3-dihydro-1-benzoxepin-4-yl)carbonyl)amino)benzyl)-N,N-dimethyl-N-(4-tetrahydropyranyl)ammonium chloride] is 200 to 204 °C; for `Cc1ccc(-c2ccc3c(c2)C=C(C(=O)Nc2ccc(Cc4c(O)ccc[n+]4[O-])cc2)CCO3)cc1` [Compound 175, N-[4—(1-oxido-3-hydroxypyridin-2-ylmethyl)phenyl]-7—(4-methylphenyl)-2,3-dihydro-1-benzoxepine-4-carboxamide] it is 254 °C (dec.).
On the same count and under the same terms, the figure for `O=C(C=Cc1cccc(-c2ccc(F)cc2)c1)Nc1ccc(CN2CCCCC2)cc1` [Compound 83, 1—(4—(3—(4-fluoro-phenyl)cinnamoylamino)benzyl)piperidine] is 166 to 167 °C.
